Experiments:
[1] = Intrinsic clearance in human liver microsomes; format: ADME, Microsome; conditions: read-out: CLH
[2] = Intrinsic clearance in rat liver microsomes; format: ADME, Microsome; conditions: read-out: CLH
[3] = Intrinsic clearance in mouse liver microsomes; format: ADME, Microsome; conditions: read-out: CLH
[4] = Lipophilicity, logP of the compound; conditions: octanol/water
[5] = Protein binding in human plasma; format: ADME, cell-free; conditions: read-out: PPB (converted)
[6] = Protein binding in rat plasma; format: ADME, cell-free; conditions: read-out: PPB (converted)
[7] = Clearance in mouse; format: ADME, organism-based; conditions: in vivo
[8] = Clearance in rat; format: ADME; conditions: in vivo
[9] = target: T1, Mucosa-associated lymphoid tissue lymphoma translocation protein 1 (Homo sapiens, UniProt Q9UDY8); assay: Inhibition of MALT1 in human whole blood assessed as reduction in PMA//anti-CD28 antibody-induced IL2 level pre-incubated for 1 hrs before stimulation with PMA//anti-CD28 antibody by MSD assay; format: tissue-based
T1 sequence (Q9UDY8 whole entry): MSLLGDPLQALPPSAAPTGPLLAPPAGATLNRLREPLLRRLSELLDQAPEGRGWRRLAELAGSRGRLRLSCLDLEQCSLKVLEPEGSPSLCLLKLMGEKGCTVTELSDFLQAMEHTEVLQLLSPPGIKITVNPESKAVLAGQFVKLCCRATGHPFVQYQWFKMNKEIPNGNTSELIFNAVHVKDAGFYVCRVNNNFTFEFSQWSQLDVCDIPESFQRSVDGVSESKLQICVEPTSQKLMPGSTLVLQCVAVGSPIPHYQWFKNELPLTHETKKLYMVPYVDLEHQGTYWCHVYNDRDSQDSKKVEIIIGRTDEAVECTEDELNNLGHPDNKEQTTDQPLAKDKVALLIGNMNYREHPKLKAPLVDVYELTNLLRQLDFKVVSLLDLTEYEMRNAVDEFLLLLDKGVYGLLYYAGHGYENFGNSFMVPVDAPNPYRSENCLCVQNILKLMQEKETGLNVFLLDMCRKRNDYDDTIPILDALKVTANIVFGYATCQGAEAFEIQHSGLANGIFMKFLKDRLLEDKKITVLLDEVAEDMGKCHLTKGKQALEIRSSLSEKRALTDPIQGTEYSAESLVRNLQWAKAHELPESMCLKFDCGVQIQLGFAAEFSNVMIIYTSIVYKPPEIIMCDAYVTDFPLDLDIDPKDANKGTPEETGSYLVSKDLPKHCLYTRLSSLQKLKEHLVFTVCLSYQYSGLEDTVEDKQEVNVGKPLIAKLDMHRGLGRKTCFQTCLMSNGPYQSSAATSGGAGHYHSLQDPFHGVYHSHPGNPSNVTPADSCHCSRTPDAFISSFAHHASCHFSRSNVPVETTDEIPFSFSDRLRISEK

[10] = Clearance in rat at 1 mg/kg, iv via cassette dosing; format: ADME, organism-based; conditions: in vivo
[11] = Half life in rat at 1 mg/kg, iv via cassette dosing; format: ADME, organism-based; conditions: in vivo
[12] = target: T2, Mucosa-associated lymphoid tissue lymphoma translocation protein 1 (Homo sapiens) (UniProt Q9UDY8); assay: Ratio of IC50 for inhibition of MALT1 in human whole blood assessed as reduction in PMA//anti-CD28 antibody-induced IL2 level to IC50 for inhibition of MALT1 in PMA-stimulated human Jurkat T cells assessed as reduction in IL2 level; format: tissue-based
T2 sequence (whole entry): T1 sequence (Q9UDY8 whole entry)

[13] = Oral bioavailability in Balb/C mouse at 3 mg/kg; format: ADME, organism-based; conditions: in vivo
[14] = Clearance in Sprague-Dawley rat at 1 mg/kg, iv; format: ADME, organism-based; conditions: in vivo
[15] = Clearance in Balb/C mouse at 1 mg/kg, iv; format: ADME, organism-based; conditions: in vivo
[16] = Terminal half life in Sprague-Dawley rat at 1 mg/kg, iv; format: ADME, organism-based; conditions: in vivo, read-out: beta t1/2 (converted)
[17] = Terminal half life in Balb/C mouse at 1 mg/kg, iv; format: ADME, organism-based; conditions: in vivo, read-out: beta t1/2 (converted)
[18] = Apparent volume of distribution at steady state in Sprague-Dawley rat at 1 mg/kg, iv; format: ADME, organism-based; conditions: in vivo, read-out: Vdss(app)
[19] = Apparent volume of distribution at steady state in Balb/C mouse at 1 mg/kg, iv; format: ADME, organism-based; conditions: in vivo, read-out: Vdss(app)
[20] = AUC (0 to 24 hrs) in Sprague-Dawley rat at 3 mg/kg, po; format: ADME, organism-based; design: time < 24 hr, route oral, dose 3 mg/kg; conditions: in vivo
[21] = AUC (0 to 24 hrs) in Balb/C mouse at 3 mg/kg, po; format: ADME, organism-based; design: time < 24 hr, route oral, dose 3 mg/kg; conditions: in vivo
[22] = Cmax in Sprague-Dawley rat at 3 mg/kg, po; format: ADME, organism-based; design: route oral, dose 3 mg/kg; conditions: in vivo
[23] = Cmax in Balb/C mouse at 3 mg/kg, po; format: ADME, organism-based; design: route oral, dose 3 mg/kg; conditions: in vivo
[24] = Oral bioavailability in Sprague-Dawley rat at 3 mg/kg; format: ADME, organism-based; conditions: in vivo
[25] = target: T1, Mucosa-associated lymphoid tissue lymphoma translocation protein 1; assay: Inhibition of MALT1 (unknown origin) using Ac-Trp-Leu-Arg-Ser-Arg^Cys(PT14)-NH2 as substrate preincubated for 60 mins followed by substrate addition and measured after 60 mins by fluorescence assay
Rattus norvegicus [26] = assay: Anti-autoimmune disease activity in OFA rat model of T-cell dependent B cell response assessed as reduction in SRBC-induced IgM producing B cells at 3 mg/kg, po BID for 4 days starting 2 days prior to immunization by ex vivo plaque forming assay relative to control; conditions: 96 h, read-out: INH
Rattus norvegicus [27] = assay: Anti-autoimmune disease activity in OFA rat model of T-cell dependent B cell response assessed as reduction in SRBC-induced IgM producing B cells at 10 mg/kg, po BID for 4 days starting 2 days prior to immunization by ex vivo plaque forming assay relative to control; conditions: 96 h, read-out: INH
Rattus norvegicus [28] = assay: Anti-autoimmune disease activity in OFA rat model of T-cell dependent B cell response assessed as reduction in SRBC-induced IgM producing B cells dosed orally twice daily for 4 days starting 2 days prior to immunization by ex vivo plaque forming assay relative to control; format: functional
[29] = Cmax in blood of OFA rat model of T-cell dependent B cell response at 3 mg/kg, po BID for 4 days starting 2 days prior to immunization and measured after 3 hrs; format: ADME, organism-based; design: route oral, dose 3 mg/kg, time 4 day
[30] = Cmax in blood of OFA rat model of T-cell dependent B cell response at 3 mg/kg, po BID for 4 days starting 2 days prior to immunization and measured after 14 hrs; format: ADME, organism-based; design: route oral, dose 3 mg/kg, time 4 day
[31] = Cmax in blood of OFA rat model of T-cell dependent B cell response at 10 mg/kg, po BID for 4 days starting 2 days prior to immunization and measured after 3 hrs; format: ADME, organism-based; design: route oral, dose 10 mg/kg, time 4 day
[32] = Cmax in blood of OFA rat model of T-cell dependent B cell response at 10 mg/kg, po BID for 4 days starting 2 days prior to immunization and measured after 14 hrs; format: ADME, organism-based; design: route oral, time 4 day, dose 10 mg/kg

SMILES | microsomal CLint [1] | microsomal CLint [2] | microsomal CLint [3] | logP [4] | fraction unbound [5] | fraction unbound [6] | also measured
O=C(Nc1cnc(-n2nccn2)c(Cl)c1)Nc1cnc2cc(Cl)nn2c1C1CC1 | < 25 µL/min/mg | 50.4 µL/min/mg | < 25 µL/min/mg | 3.2 | < 0.01 | 0.013 | –
O=C(Nc1cnc(-n2nccn2)c(Cl)c1)Nc1cnc2cc(Cl)nn2c1C1CCOCC1 | < 25 µL/min/mg | 25.5 µL/min/mg | – | 3 | 0.012 | 0.023 | –
CC(C)c1c(NC(=O)Nc2ccnc(C(F)(F)F)c2)cnc2cc(Cl)nn12 | 61 µL/min/mg | < 25 µL/min/mg | – | – | – | – | –
COC[C@H](C)c1c(NC(=O)Nc2cnc(-n3nccn3)c(Cl)c2)cnc2cc(Cl)nn12 | 81.4 µL/min/mg | 60.9 µL/min/mg | < 25 µL/min/mg | 3.4 | 0.014 | 0.012 | –
C[C@H]1COC[C@H](C)N1c1c(NC(=O)Nc2ccnc(C(F)(F)F)c2)cnc2cc(Cl)nn12 | 114 µL/min/mg | – | – | – | – | – | clearance [7]: 15 mL/min/kg; clearance [8]: 25 mL/min/kg; IC50 [9]: 9 µM; clearance [10]: 46 mL/min/kg; half-life [11]: 3.3 h; Ratio IC50 [12]: 50
CO[C@@H](C)c1c(NC(=O)Nc2ccnc(C(F)(F)F)c2)cnc2cc(Cl)nn12 | < 25 µL/min/mg | < 25 µL/min/mg | < 25 µL/min/mg | – | 0.038 | 0.027 | bioavailability [13]: 50%; clearance [14]: 9 mL/min/kg; clearance [15]: 28 mL/min/kg; half-life [16]: 9.6 h; half-life [17]: 1.2 h; Vd [18]: 5.3 L/kg; Vd [19]: 3 L/kg; AUC [20]: 13.4 µM·h; AUC [21]: 2.3 µM·h; Cmax [22]: 700 nM; Cmax [23]: 500 nM; bioavailability [24]: 86%
Cc1c(NC(=O)Nc2ccnc(C(F)(F)F)c2)cnc2cc(Cl)nn12 | < 25 µL/min/mg | < 25 µL/min/mg | – | – | – | – | IC50 [25]: 0.998 µM
CC(C)c1c(NC(=O)Nc2cnc(-n3nccn3)c(Cl)c2)cnc2cc(Cl)nn12 | < 25 µL/min/mg | < 25 µL/min/mg | < 25 µL/min/mg | 4 | < 0.01 | < 0.01 | clearance [10]: 18 mL/min/kg; half-life [11]: 5.4 h; inhibition in vivo at 3 mg/kg (Rattus norvegicus [26]): 60%; inhibition in vivo at 10 mg/kg (Rattus norvegicus [27]): 96%; ED50 (Rattus norvegicus [28]; po, 96 h, time 4 day): 3 mg/kg; Activity (Rattus norvegicus [28]; time 4.0 day): Dose-dependent effect; Cmax [29]: 1500 nM; Cmax [30]: 400 nM; Cmax [31]: 7600 nM; Cmax [32]: 3300 nM
COC[C@@H](C)c1c(NC(=O)Nc2cnc(-n3nccn3)c(Cl)c2)cnc2cc(Cl)nn12 | < 25 µL/min/mg | 70.1 µL/min/mg | – | 3.4 | 0.015 | 0.011 | –
CO[C@H](C)c1c(NC(=O)Nc2cnc(-n3nccn3)c(Cl)c2)cnc2cc(Cl)nn12 | – | < 25 µL/min/mg | – | – | 0.023 | 0.032 | –
COCc1c(NC(=O)Nc2cnc(-n3nccn3)c(Cl)c2)cnc2cc(Cl)nn12 | < 25 µL/min/mg | < 25 µL/min/mg | – | 3 | 0.019 | 0.035 | –

Reference: ChEMBL document CHEMBL4699655, “Optimization of the In Vivo Potency of Pyrazolopyrimidine MALT1 Protease Inhibitors by Reducing Metabolism and Increasing Potency in Whole Blood” (J Med Chem, 2020)
